Measured values: patent publication US11291205B2, “Microbiocidal picolinamide derivatives” (Syngenta Participations AG, priority 2017, dated 2022)

How the values were obtained:
Type in all cases: cell-based
[1] = test system: Glomerella lagenarium (Colletotrichum lagenarium); experiment: Glomerella lagenarium (Colletotrichum lagenarium) / liquid culture (anthracnose); conditions: Colletotrichum orbiculare, 72 h, 200 ppm in the formulation, inhibition of growth measured photometrically 3 to 4 days after application, compared to untreated control, read-out: disease control
Protocol: (§1) Glomerella lagenarium (Colletotrichum lagenarium)/Liquid Culture (Anthracnose) Conidia of the fungus from cryogenic storage are directly mixed into nutrient broth (PDB potato dextrose broth). After placing a (DMSO) solution of test compound into a microtiter plate (96-well format), the nutrient broth containing the fungal spores is added. The test plates are incubated at 24° C. and the inhibition of growth is measured photometrically 3 to 4 days after application.

[2] = test system: Monographella nivalis (Microdochium nivale); experiment: Monographella nivalis (Microdochium nivale) / liquid culture (foot rot cereals); conditions: 96 h, 200 ppm in the formulation, inhibition of growth determined photometrically 4-5 days after application, compared to untreated control, read-out: disease control
Protocol: as §1, with “Monographella nivalis (Microdochium nivale)/Liquid” for “Glomerella lagenarium (Colletotrichum lagenarium)/Liquid”, “(Foot Rot Cereals)” for “(Anthracnose)”, “determined” for “measured”, “4-5” for “3 to 4”

[3] = test system: Mycosphaerella graminicola (Septoria tritici); experiment: Mycosphaerella graminicola (Septoria tritici) / liquid culture (Septoria blotch); conditions: Zymoseptoria tritici, 96 h, 200 ppm in the formulation, inhibition of growth determined photometrically 4 to 5 days after application, compared to untreated control, read-out: disease control
Protocol: (§2) Mycosphaerella graminicola (Septoria tritici)/Liquid Culture (Septoria Blotch) Conidia of the fungus from cryogenic storage are directly mixed into nutrient broth (PDB potato dextrose broth). After placing a (DMSO) solution of test compound into a microtiter plate (96-well format), the nutrient broth containing the fungal spores is added. The test plates are incubated at 24° C. and the inhibition of growth is determined photometrically 4 to 5 days after application.

[4] = test system: Mycosphaerella arachidis (Cercospora arachidicola); experiment: Mycosphaerella arachidis (Cercospora arachidicola) / liquid culture (early leaf spot); conditions: 96 h, 200 ppm in the formulation, inhibition of growth determined photometrically 4-5 days after application, compared to untreated control, read-out: disease control
Protocol: as §2, with “arachidis (Cercospora arachidicola)/Liquid” for “graminicola (Septoria tritici)/Liquid”, “(Early Leaf Spot)” for “(Septoria Blotch)”, “4-5” for “4 to 5”

[5] = test system: Botryotinia fuckeliana (Botrytis cinerea); experiment: Botryotinia fuckeliana (Botrytis cinerea) / liquid culture (gray mould); conditions: 72 h, 200 ppm in the formulation, inhibition of growth determined photometrically 3-4 days after application, compared to untreated control, read-out: disease control
Protocol: as §2, with “Botryotinia fuckeliana (Botrytis cinerea)/Liquid” for “Mycosphaerella graminicola (Septoria tritici)/Liquid”, “(Gray Mould)” for “(Septoria Blotch)”, “(Vogels” for “(PDB potato dextrose”, “3-4” for “4 to 5”

Measured: inhibition of growth at 200 ppm

COc1ccnc(C(=O)N[C@@H](C)C(=O)OC2CCC2(C)c2ccc(F)cc2)c1O (stereo partly drawn) [I.ad.02, [2-(4-fluoro phenyl)-2-methyl-cyclobutyl] (2S)-2-[(3-hydroxy-4-methoxy-pyridine-2-carbonyl)amino]propanoate]
≥ 80%: [1] | [2] | [3]

CCC1(c2ccc(F)cc2)CCC1OC(=O)[C@H](C)NC(=O)c1nccc(OC)c1O (stereo partly drawn) [I.ag.02, [2-ethyl-2-(4-fluorophenyl)cyclo-butyl] (2S)-2-[(3-hydroxy-4-methoxy-pyridine-2-carbonyl)amino]propanoate]
not listed: [5]
≥ 80%: all other assays above

COc1ccnc(C(=O)N[C@@H](C)C(=O)OC2CC2c2ccc(C(C)(C)C)cc2)c1O (stereo partly drawn) [I.ap.01, [2-(4-tert-butylphenyl)cyclopropyl] (2S)-2-[(3-hydroxy-4-methoxy-pyridine-2-carbonyl)amino]propanoate]
≥ 80%: all assays above

CCCc1ccc(C2CC2OC(=O)[C@H](C)NC(=O)c2nccc(OC)c2O)cc1 (stereo partly drawn) [I.aq.01, [2-(4-propylphenyl)cyclopropyl] (2S)-2-[(3-hydroxy-4-methoxy-pyridine-2-carbonyl)amino]propanoate]
≥ 80%: all assays above

COc1ccnc(C(=O)N[C@@H](C)C(=O)OC2CCC2(c2ccc(F)cc2)C2CC2)c1O (stereo partly drawn) [I.ar.02, [2-cyclopropyl-2-(4-fluorophenyl)cyclobutyl] (2S)-2-[(3-hydroxy-4-methoxy-pyridine-2-carbonyl)amino]propanoate]
≥ 80%: all assays above

COc1ccnc(C(=O)N[C@@H](C)C(=O)OC2CCC2(CC(C)C)c2ccc(F)cc2)c1O (stereo partly drawn) [I.at.02, [2-(4-fluorophenyl)-2-isobutyl-cyclobutyl] (2S)-2-[(3-hydroxy-4-methoxy-pyridine-2-carbonyl)amino]propanoate]
not listed: [5]
≥ 80%: all other assays above

COc1ccnc(C(=O)N[C@@H](C)C(=O)OC2CCC2(c2cccc(C)c2)c2cccc(C)c2)c1O (stereo partly drawn) [I.s.02, [2,2-bis(m-tolyl)cyclobutyl] (2S)-2-[(3-hydroxy-4-methoxy-pyridine-2-carbonyl)amino]propanoate]
not listed: [5]
≥ 80%: all other assays above

COc1ccnc(C(=O)N[C@@H](C)C(=O)OC2CCC2(c2ccc(Cl)cc2)c2ccc(Cl)cc2)c1O (stereo partly drawn) [I.v.02, [2,2-bis(4-chlorophenyl)cyclobutyl] (2S)-2-[(3-hydroxy-4-methoxy-pyridine-2-carbonyl)amino]propanoate]
not listed: [5]
≥ 80%: all other assays above

COc1ccnc(C(=O)N[C@@H](C)C(=O)OC2CCC2(c2ccc(C)cc2)c2ccc(C)cc2)c1O (stereo partly drawn) [I.w.02, [2,2-bis(p-tolyl)cyclobutyl](2S)-2-[(3-hydroxy-4-methoxy-pyridine-2-carbonyl)amino]propanoate]
not listed: [5]
≥ 80%: all other assays above
